Experimental data reported in patent publication EP0565593B1, “REDUCING PESTICIDAL INTERACTIONS IN CROPS” (priority 1990, dated 1992).
Like-named read-outs stand apart in the source and are kept apart here.

What was measured:
Corn [1] = assay: Greenhouse test Procedure VII: biocide and antidote in furrow, herbicide POE (Examples 39-42, 48-50, 56-58; Tables 38-41, 47-49, 55-57); assay type: in vivo
In short: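 Corn seed was planted in greenhouse pots, with COUNTER 15G insecticide plus antidote granules applied in-furrow (e.g. 1.1 + 0.37 mg a.i./cm, or 227 g/305 m with acetone-applied safeners). About five days later, herbicides in water with 0.25% v/v X-77 were track-sprayed post-emergence at 187 L/ha. Plant response was scored eight days afterward, with two to four replicates.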

Corn [2] = conditions: for antidote activity: COUNTER with BEACON, PURSUIT (POE) or XRD-498 (PPI), Tables 29-37; for relieving corn injury, comparison: Example 29, COUNTER/PURSUIT negative synergy
Corn [3] = tested on: Corn
[4] = COUNTER 15G + BEACON/co-herbicide combinations, Example 56
[5] = in-furrow antidote, COUNTER 15G + sulfonamide herbicides, Table 41
[6] = DIAZINON + Herbicides 1, 21, 18, Example 53
[7] = malathion + Herbicides 1, 21, 18, Example 54

Row | SMILES | corn injury (Corn [1]; [4]) | safening, comparison (Corn [1]; COUNTER/ACCENT, 160 ratio, Example 50) | corn injury (Corn [1]; [5]) | antidote activity (Corn [2]) | relieving corn injury, comparison (Corn [2]) | safening (Corn [3]; [6]) | safening (Corn [3]; [7]) | safening of corn injury (Corn [1]; COUNTER 15G + sulfonamide herbicides POE, Table 41) | safening effects (Corn [1]; COUNTER 15G in furrow, POE sulfonylurea herbicides, Tables 38, 39) | safener efficacy (Corn [1]; COUNTER + PURSUIT/co-herbicide tank mixtures, Example 58) | antidote efficacy (Corn [1]; imidazolinone herbicides + COUNTER 15G, Table 40)
1 | CC1(C)OC(c2ccco2)CN1C(=O)C(Cl)Cl (stereo not shown) [Antidote No. 1, Oxazolidine, 3-(dichloroacetyl)-2,2-dimethyl-5-(2-furanyl)-] | reduced corn injury | more effective than MON-7400 | significantly reduced | most active antidote | more active than Antidote No. 28 | Effective safening |  |  |  |  | 
2 | O=C(OCc1ccccc1)c1sc(Cl)nc1C(F)(F)F [Antidote No. 7, 5-Thiazolecarboxylic acid, 2-chloro-4-(trifluoromethyl)-, (phenylmethyl) ester] | reduced corn injury |  | significantly reduced | slightly more active than other thiazoles tested |  |  | moderate to high degrees of safening |  |  |  | 
3 | COC(=O)COC(c1ccccc1)c1ccccc1 [Antidote No. 12, Acetic acid, (diphenylmethoxy)-, methyl ester] | reduced corn injury |  | significantly reduced |  | more active than Antidote No. 28 | Effective safening | moderate to high degrees of safening | 92-100% | highest and most consistent safening effects | most efficacious safener | most efficacious antidote
